“Also recorded” adds a separate entry of the source. Where two headings read alike, the source gives them in different places. Marks after values point to notes of the source that are not given here.
Tests used:
TAMH cells [1] = assay: MTT cell viability assay, TAMH cells; conditions: TAMH cells, MTT assay, 24 h exposure; for LD25: 25% reduction of viability; for LD50: 50% reduction of viability
Text: (§1) In addition to the activity, basic toxicological properties of the newly synthesized compounds were also investigated by using the 3-(4,5-dimethylthiazol-2-yl)-2,5-diphenyltetrazolium bromide (MTT) cell viability assay on mouse TAMH and human HEP-G2 hepatic cell lines (see Table 2). Both cell lines are established for the evaluation of hepatotoxicity.[42],[43]
(§2) The culturing of the mouse liver TAMH and human liver cancer HEP-G2 cell lines and the MTT assay used to evaluate cell viability were carried out as previously described elsewhere in detail.[27],[29] […] The medium in the wells was then replaced with the medium containing the compounds. Control wells contained an equivalent number of cells and 1% (v/v) DMSO. Wells without cells were used to determine the background optical density (OD) and were treated as the control wells. After 24 or 48 h of incubation with the compound, the respective medium was replaced with a fresh medium supplemented with 10% (v/v) of a 2.5 mg/mL solution of MTT. The plates were incubated for 4 h. Then, the culture medium was carefully aspirated off and 50 μL of DMSO was added to each well to dissolve the formazan crystals. The ODs of each well were measured at λ = 570 nm with a SpectraMax 190 microplate reader.
(§3) The calculated T/Ccorr. values were plotted against the log(concentration). The LD50 and LD25 values were determined by using GraphPad Prism 6. […] The values are given as the mean with SD of at least three independent experiments.

KV7.2/3 channel [2] = target: T1, KV7.2/3 channel (Homo sapiens, UniProt O43525+O43526); assay: KV7.2/3 channel opening assay (thallium-sensitive fluorescence); assay type: cell-based; conditions: for potency relative to flupirtine: KV7.2/3 opening, EC50 compared with flupirtine
Description: To evaluate the biological activity, the synthesized analogues were tested on HEK293 cells overexpressing the KV7.2/3 channel. The measurement was carried out in a fluorescence-based assay in which a thallium-sensitive dye generated the fluorescence signal. Due to its similarity to potassium, thallium can also pass through KV7 channels. The intensity of the fluorescence signal correlates with the amount of intracellular thallium and thus with the ability of the compounds to open KV7 channels. To determine the potency, the fluorescence intensity was measured as a function of the compound concentration. The efficacy was determined relative to the maximum fluorescence signal induced by flupirtine. For a summary of the activity data, see Table 2.
The cell culture of the KV7.2/3 transfected HEK293 cells (HEK293 KCNQ2/3 cells from SB Drug Discovery, Glasgow, UK) used for the assay and the processing of the obtained data were performed as described in earlier work.[27],[29] Briefly, 60,000 cells/well were seeded into 96-well microtiter plates for fluorescence-based assays (4titude Vision Plate Black 96-Well microtiter plates from ThermoScientic) and incubated for 24 h. After incubation, the medium was changed to 200 μL/well loading buffer containing 5 mmol/L probenecid and incubated for 1 h at room temperature. Subsequently, the test compounds dissolved in DMSO were added to the wells to the desired concentrations and further incubated for 30 min. As a control, the loading buffer with a DMSO concentration corresponding to the substance samples (1% (V/V)) was used. Fluorescence measurements were performed on the Infinite F200 Pro plate reader (Tecan) set at […]/emission wavelengths of 485 and 535 nm, respectively. After measuring the background fluorescence (baseline) for 20 s, a stimulus buffer (25 mmol/L K^+, 15 mmol/L Tl^+) was added just before the fluorescence of each well was measured.
The calculations to obtain dose–response curves were performed in the same manner as in previous investigations.[27],[29] Briefly, the fluorescence intensity was normalized with the baseline signal (F/F0) at each time of signal acquisition. To obtain the corrected negative control, a value of 1 was subtracted from the normalized value of the negative control. Subsequently, the value of the corrected negative control was subtracted from the maximum (corr. F/F0) value of a compound in a defined concentration (corr. ΔF/F0) and then plotted against the logarithmic concentration. The EC50 value was calculated as relative values with GraphPad Prism 6 (La Jolla, CA, USA), that is, the inflection points of the sigmoidal curves. The Emax value, the maximum response, indicates the intrinsic activity of a compound. This value was determined relative to flupirtine (1), where the maximum corr. ΔF/F0 value of flupirtine (1) was defined as 100%. The EC50 and Emax value of a compound is the mean of at least three independent experiments ± standard deviation (SD).

HEP-G2 cells [3] = assay: MTT cell viability assay, HEP-G2 cells; conditions: HEP-G2 cells, MTT assay, 24 h exposure; for LD25: 25% reduction of viability; for LD50: 50% reduction of viability
Text: as §1, §2, §3

[4] = log D7.4 estimation by HPLC-based method; assay type: physicochemical
Description: The log D7.4 values were estimated using a common HPLC-based method in accordance with guideline OPPTS 830.7570 of the United States Environmental Protection Agency (EPA). The HPLC measurements were performed with a Phenomenex Luna 5 μm Phenyl-Hexyl 100 Å column (150 × 4.6 mm). […]. Uracil was used to measure the unretained peak time. To obtain a calibration function, the logarithm of the capacity factors for the reference substances was then plotted against the corresponding log P values taken from the mentioned guideline, which are equivalent to the log D7.4 values for non-ionizable compounds like the reference substances used for calibration. With this calibration function, it was possible to estimate the log D7.4 value from the corresponding retention time for each compound to be tested. For the measurement, 2 mg of the reference substances was each dissolved in 1 mL of methanol. A reference mixture was then obtained by combining 50 μL of each reference solution. The reference mixture was measured before and after the substances to be tested. The mean value from both measurements was used for the calibration line. The substances to be tested were injected as a solution in methanol (2 mg/mL), and the retention time was determined as the mean value from two measurements.

[5] = Maximum concentration without precipitation in MTT assay buffer; assay type: physicochemical
Description: A limitation in the in vitro toxicity testing was the occasional poor water solubility of the analogues.

[6] = set-up: method as in guideline OPPTS 830.7570 (EPA); conditions: reference substances for calibration; log P values; ref guideline OPPTS 830.7570 (EPA); cited from earlier work
TAMH cells [7] = conditions: MTT assay, 24 h exposure; cited from earlier work
HEP-G2 cells [8] = conditions: MTT assay, 24 h exposure; cited from earlier work
KV7.2/3 channel [9] = target: T1, KV7.2/3 channel; conditions: cited from earlier work
[10] = HPLC, Phenomenex Luna 5 μm Phenyl-Hexyl column, pH 7.4, HPLC, mean of two calibrations, read-out: logD7.4 (mean)
[11] = HPLC, Phenomenex Luna 5 μm Phenyl-Hexyl column, pH 7.4, estimated by HPLC-based method, pH 7.4, read-out: log D7.4

T1 sequence (O43526 whole entry): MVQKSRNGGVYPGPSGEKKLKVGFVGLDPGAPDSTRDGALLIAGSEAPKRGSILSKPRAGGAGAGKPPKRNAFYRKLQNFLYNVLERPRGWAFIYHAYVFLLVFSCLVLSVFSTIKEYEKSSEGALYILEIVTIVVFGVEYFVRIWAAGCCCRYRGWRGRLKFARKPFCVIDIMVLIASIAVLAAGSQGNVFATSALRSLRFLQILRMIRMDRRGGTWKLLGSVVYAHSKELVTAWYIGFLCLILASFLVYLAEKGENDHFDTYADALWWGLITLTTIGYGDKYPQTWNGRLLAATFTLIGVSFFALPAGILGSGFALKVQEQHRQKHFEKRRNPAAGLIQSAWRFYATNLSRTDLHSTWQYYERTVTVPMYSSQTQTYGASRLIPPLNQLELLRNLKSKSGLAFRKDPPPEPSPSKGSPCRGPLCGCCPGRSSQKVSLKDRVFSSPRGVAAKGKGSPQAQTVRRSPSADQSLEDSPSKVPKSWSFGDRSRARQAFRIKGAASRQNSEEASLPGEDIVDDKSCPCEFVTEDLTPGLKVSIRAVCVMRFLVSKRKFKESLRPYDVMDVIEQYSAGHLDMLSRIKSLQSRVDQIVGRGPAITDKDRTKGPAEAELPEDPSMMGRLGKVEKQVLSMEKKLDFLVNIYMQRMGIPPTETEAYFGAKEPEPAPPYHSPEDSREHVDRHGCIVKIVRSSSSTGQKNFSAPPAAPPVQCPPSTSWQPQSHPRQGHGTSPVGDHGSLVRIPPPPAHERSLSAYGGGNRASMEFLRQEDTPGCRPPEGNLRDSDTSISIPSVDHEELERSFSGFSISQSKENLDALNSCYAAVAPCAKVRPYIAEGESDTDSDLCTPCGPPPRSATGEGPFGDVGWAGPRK
T1 sequence (O43525 whole entry): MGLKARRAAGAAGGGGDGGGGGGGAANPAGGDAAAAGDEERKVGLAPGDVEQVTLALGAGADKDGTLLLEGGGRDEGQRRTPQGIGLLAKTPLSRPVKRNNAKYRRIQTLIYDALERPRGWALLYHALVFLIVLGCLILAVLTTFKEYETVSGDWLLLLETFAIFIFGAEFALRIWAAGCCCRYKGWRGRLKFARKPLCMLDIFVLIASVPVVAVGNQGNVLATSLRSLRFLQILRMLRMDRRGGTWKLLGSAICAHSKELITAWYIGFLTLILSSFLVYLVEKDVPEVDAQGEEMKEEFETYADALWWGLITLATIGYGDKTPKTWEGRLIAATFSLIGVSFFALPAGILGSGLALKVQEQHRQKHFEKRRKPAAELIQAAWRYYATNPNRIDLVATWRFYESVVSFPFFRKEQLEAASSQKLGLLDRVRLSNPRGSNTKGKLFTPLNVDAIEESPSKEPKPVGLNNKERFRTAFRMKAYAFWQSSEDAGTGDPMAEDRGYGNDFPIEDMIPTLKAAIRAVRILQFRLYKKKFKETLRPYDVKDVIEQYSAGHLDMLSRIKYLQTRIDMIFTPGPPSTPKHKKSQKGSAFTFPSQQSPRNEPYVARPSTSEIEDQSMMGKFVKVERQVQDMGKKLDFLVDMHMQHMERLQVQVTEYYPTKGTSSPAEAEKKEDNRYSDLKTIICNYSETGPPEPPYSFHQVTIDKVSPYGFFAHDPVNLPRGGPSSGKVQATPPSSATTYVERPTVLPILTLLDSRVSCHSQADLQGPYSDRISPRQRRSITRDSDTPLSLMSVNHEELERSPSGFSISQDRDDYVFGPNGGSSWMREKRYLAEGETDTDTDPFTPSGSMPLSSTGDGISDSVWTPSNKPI

## COc1nc(NCc2ccc(F)cc2)cc(C)c1C(=O)NCc1ccc(F)cc1 [36b, N-(4-Fluorobenzyl)-6-[(4-fluorobenzyl)amino]-2-methoxy-4-methylnicotinamide]
TAMH cells [1]
  LD25: >63 µM
  LD50: >63 µM
KV7.2/3 channel [2]; HEK293 cells overexpressing KV7.2/3, concentration for half-maximal channel opening, mean ± SD, ≥3 determinations
  EC50: 310 nM
KV7.2/3 channel [2]; HEK293 cells overexpressing KV7.2/3, relative to maximum signal of flupirtine (=100%)
  efficacy: 105 ± 12%
KV7.2/3 channel [2]
  potency relative to flupirtine: about six times more potent than flupirtine; also recorded: six times as potent as flupirtine
KV7.2/3 channel [2]; listed as N-(4-fluorobenzyl)-6-[(4-fluorobenzyl)amino]-2-methoxy-4-methylnicotinamide
  potency relative to flupirtine: six times as active as flupirtine
HEP-G2 cells [3]
  LD25: >16 µM
  LD50: >16 µM
[4]; HPLC, Phenomenex Luna 5 μm Phenyl-Hexyl column, pH 7.4, HPLC, calibration A1, read-out: logD7.4
  chromatographic logD: 4.13
[4]; HPLC, Phenomenex Luna 5 μm Phenyl-Hexyl column, pH 7.4, HPLC, calibration B1, read-out: logD7.4
  chromatographic logD: 4.09
[4]; [10]
  chromatographic logD: 4.1
[4]; [11]
  chromatographic logD: 4.1
[5]
  maximum concentration achieved without precipitating: 63 µM

## c1ccc(N(c2ccccc2)c2ccccc2)cc1 [Triphenylamine]
[6]
  logD (Lit.): 5.7

## CCOC(=O)Nc1ccc(NCc2ccc(F)cc2)cc1N [compound 2, retigabine]
TAMH cells [7]
  LD50: >400 ^f μM
HEP-G2 cells [8]
  LD25: 269 ± 166 ^f μM
  LD50: >400 ^f μM
[4]; pH 7.4, HPLC, calibration C, read-out: logD7.4
  chromatographic logD: 2.05
[4]; pH 7.4, HPLC, calibration D, read-out: logD7.4
  chromatographic logD: 2.06
[4]; pH 7.4, HPLC, mean of two calibrations, read-out: logD7.4 (mean)
  chromatographic logD: 2.1
[4]; pH 7.4, estimated by HPLC-based method, pH 7.4, read-out: log D7.4
  chromatographic logD: 2.1
KV7.2/3 channel [9]; HEK293 cells overexpressing KV7.2/3, mean ± SD
  EC50: 147 ± 12 nM
KV7.2/3 channel [9]; HEK293 cells overexpressing KV7.2/3, relative to flupirtine
  efficacy: 134 ± 16 ^f %

## Cc1cc(NCc2ccc(F)cc2)[nH]c(=O)c1C(=O)NCc1ccc(F)cc1 [compound 37, N-(4-Fluorobenzyl)-6-[(4-fluorobenzyl)amino]-4-methyl-2-oxo-1,2-dihydropyridine-3-carboxamide]
other
  melting point: 196 °C

## O=C(Cc1cc(F)cc(F)c1)Nc1ccc(N2CCOCC2)nc1N1CCOCC1 [compound 49]
KV7.2/3 channel [9]; KV7.2/3, lead structure from previous work, read-out: EC50
  EC50: 11 nM

## Cc1cc(NCc2ccc(F)cc2)nc(N2CCOCC2)c1CNC(=O)OCC(C)C [compound 66, Isobutyl ({6-[(4-Fluorobenzyl)amino]-4-methyl-2-morpholinopyridin-3-yl}methyl)carbamate]
TAMH cells [1]
  LD25: 52 ± 61 µM
  LD50: >125 µM
KV7.2/3 channel [2]; HEK293 cells overexpressing KV7.2/3, footnote e
  EC50: > 10000 nM
KV7.2/3 channel [2]; inactive = no channel opening activity detected up to a concentration of 10 μM
  KV7.2/3 channel opening activity (in words): inactive
HEP-G2 cells [3]
  LD25: 24 ± 27 µM
  LD50: >125 µM
[4]; HPLC, Phenomenex Luna 5 μm Phenyl-Hexyl column, pH 7.4, HPLC, calibration A2, read-out: logD7.4
  chromatographic logD: 4.75
[4]; HPLC, Phenomenex Luna 5 μm Phenyl-Hexyl column, pH 7.4, HPLC, calibration B2, read-out: logD7.4
  chromatographic logD: 4.75
[4]; [10]
  chromatographic logD: 4.8
[4]; [11]
  chromatographic logD: 4.8
